# Measurements published in article PMC6661771, “Indole hybridized diazenyl derivatives: synthesis, antimicrobial activity, cytotoxicity evaluation and docking studies” (BMC Chemistry, 2019).
# Read-outs that look alike come from different tables or passages of the source.
# Tests used:
# E. coli [1] = test: MIC by tube dilution method; type: cell-based; conditions: 24 h at 37 °C
# S. enterica [2] = test: Minimum bactericidal concentration (MBC); type: cell-based; conditions: Salmonella enterica, read-out: MBC/MFC
# Description: After MIC assessment, the indole derivatives (DS1–DS21), were additionally evaluated for MBC and MFC values. […] The 10–15 ml of nutrient agar and Sabouraud dextrose agar was added to the petri plates for bacterial and fungal samples respectively with gentle shaking of plates in order to mix the culture throughout the media. Allowed the media to solidify. The petri plates were then incubated for the predefined time and temperature as referenced already for bacterial and fungal cultures respectively. The plates were then investigated visually for the development of microbial growth. The MBC and MFC were stated as the minimum concentration of the compounds in aliquots showing no visual growth after incubation.
# S. enterica [3] = test: MIC by tube dilution method; type: cell-based; conditions: 24 h at 37 °C
# K. pneumonia [4] = test: Minimum bactericidal concentration (MBC); type: cell-based; conditions: for MBC: Klebsiella pneumoniae
# B. subtilis [5] = test: MIC by tube dilution method; type: cell-based; conditions: 24 h at 37 °C
# S. aureus [6] = test: Minimum bactericidal concentration (MBC); type: cell-based; conditions: for MBC: Staphylococcus aureus
# K. pneumonia [7] = test: MIC by tube dilution method; type: cell-based; conditions: Klebsiella pneumoniae, 24 h, 24 h at 37 °C, read-out: MIC
# S. aureus [8] = test: MIC by tube dilution method; type: cell-based; conditions: 24 h at 37 °C
# E. coli [9] = test: Minimum bactericidal concentration (MBC); type: cell-based; conditions: for MBC: Escherichia coli
# B. subtilis [10] = test: Minimum bactericidal concentration (MBC); type: cell-based; conditions: for MBC: Bacillus subtilis
# A. niger [11] = test: MIC by tube dilution method; type: cell-based; conditions: 7 days at 25 °C
# A. fumigatus [12] = test: MIC by tube dilution method; type: cell-based; conditions: 7 days at 25 °C
# A. fumigatus [13] = test: Minimum fungicidal concentration (MFC); type: cell-based; conditions: for MFC: Aspergillus fumigatus, read-out: MBC/MFC
# A. niger [14] = test: Minimum fungicidal concentration (MFC); type: cell-based; conditions: for MFC: Aspergillus niger, read-out: MBC/MFC
# [15] = Escherichia coli, 24 h, read-out: MIC
# [16] = Salmonella enterica, 24 h, read-out: MIC
# [17] = Bacillus subtilis, read-out: MIC
# [18] = Staphylococcus aureus, read-out: MIC
# [19] = Aspergillus niger, 168 h, read-out: MIC
# [20] = Aspergillus fumigatus, 168 h, read-out: MIC
Structure (SMILES),MIC (E. coli [1]; [15]) [µg/mL],"MBC (S. enterica [2]; S. enterica, MBC) [µg/mL]",MIC (S. enterica [3]; [16]) [µg/mL],MBC (K. pneumonia [4]) [µg/mL],MIC (B. subtilis [5]; [17]) [µg/mL],MBC (S. aureus [6]) [µg/mL],MIC (K. pneumonia [7]) [µg/mL],MIC (S. aureus [8]; [18]) [µg/mL],MBC (E. coli [9]) [µg/mL],MBC (B. subtilis [10]) [µg/mL],MIC (A. niger [11]; [19]) [µg/mL],MIC (A. fumigatus [12]; [20]) [µg/mL],melting point [°C],MFC (A. fumigatus [13]) [µg/mL],MFC (A. niger [14]) [µg/mL],further results
"CO/N=C(\C(=O)N[C@@H]1C(=O)N2C(C(=O)O)=C(COC(C)=O)CS[C@H]12)c1csc(N)n1 [CFT, cefotaxime, reference compound]",1.95,31.2,15.6,3.9,15.6,31.2,1.95,15.6,15.6,15.6,,,,,,
"O=C(O)c1cn(C2CC2)c2cc(N3CCNCC3)c(F)cc2c1=O [CPR, ciprofloxacin, reference compound]",3.9,31.2,15.6,7.81,7.81,62.5,7.81,1.95,31.2,31.2,,,,,,
"C/C(=N\Cc1ccco1)c1ccc(/N=N/c2c[nH]c3ccccc23)cc1 [DS-1, (E)-N-(2-Furylmethyl)-1-[4-[(E)-1H-indol-3-ylazo]phenyl]ethanimine]",15.6,62.5,62.5,,62.5,125,3.9,62.5,125,125,125,62.5,315 to 320,125,125,
"C/C(=N/c1nnc(-c2ccc([N+](=O)[O-])cc2)s1)c1ccc(/N=N\c2c[nH]c3ccc([N+](=O)[O-])cc23)cc1 [DS-5, (Z)-N-(1-(4-((Z)-(5-Nitro-1H-indol-3-yl)diazenyl)phenyl)ethylidene)-5-(4-nitrophenyl)-1,3,4-thiadiazol-2-amine]",1.95,62.5,31.2,15.6,62.5,125,3.9,125,31.2,125,62.5,125,160 to 165,125,125,
"CCc1nnc(/N=C(/C)c2ccc(/N=N\c3c[nH]c4ccccc34)cc2)s1 [DS-7, (Z)-N-(1-(4-((Z)-(1H-Indol-3-yl)diazenyl)phenyl)ethylidene)-5-ethyl-1,3,4-thiadiazol-2-amine]",7.81,,31.2,16.2,125,125,3.9,62.5,31.2,125,62.5,62.5,145 to 150,125,125,MBC (S. enterica [2]): 31.2 µg/mL
"C/C(=N/c1ccc(Cl)cc1[N+](=O)[O-])c1ccc(/N=N\c2c[nH]c3ccccc23)cc1 [DS-13, (Z)-N-(1-(4-((Z)-(1H-Indol-3-yl)diazenyl)phenyl)ethylidene)-4-chloro-2-nitroaniline]",7.81,,62.5,15.6,62.5,62.5,3.9,62.5,3.9 to 7.81,125,62.5,31.2,,125,125,MBC (S. enterica [2]): 62.5 µg/mL
"C/C(=N/c1ccc(S(=O)(=O)Nc2ncccn2)cc1)c1ccc(/N=N\c2c[nH]c3ccccc23)cc1 [DS-19, 4-((Z)-(1-(4-((Z)-(1H-Indol-3-yl)diazenyl)phenyl)ethylidene)amino)-N-(pyrimidin-2-yl) benzenesulfonamide]",,,,,,,,,,,,,,,,MIC (A. niger [11]): 31.25 µg/mL; MIC (E. coli [1]): 7.81 µg/mL; MIC (A. fumigatus [12]): 31.25 µg/mL; MIC (S. enterica [3]): 62.5 µg/mL; MBC/MFC (K. pneumonia [4]): 15.62 µg/mL; MIC (B. subtilis [5]): 31.25 µg/mL; MBC/MFC (S. aureus [6]): 31.25 µg/mL; MBC/MFC (A. fumigatus [13]): 125 µg/mL; MBC/MFC (A. niger [14]): 125 µg/mL; MIC (S. aureus [8]): 31.25 µg/mL; MBC/MFC (E. coli [9]): 62.5 µg/mL; MBC/MFC (B. subtilis [10]): 125 µg/mL
"OC(Cn1cncn1)(Cn1cncn1)c1ccc(F)cc1F [FLU, fluconazole, reference compound]",,,,,,,,,,,31.2,7.81,,125,125,
